Data on 24 compounds can be found in patent US20220002314A1 (priority 2018, published 2022).

Where two headings read alike, the source gives them in different places.

Assay [1] concerns the target Human α2δ-1 subunit of Cav2.2 calcium channel (Homo sapiens, UniProt P54289). Nature of the assay: biochemical. Type of assay: binding.
A further assay has as its target Human μ-opioid receptor (Homo sapiens, UniProt P35372). Nature of the assay: biochemical. Type of assay: binding.
Where [2] appears, read: binding to α2δ-1 subunit of voltage-gated calcium channels expressed as Ki, + also Ki>5000 nM or inhibition between 1% and 50%, read-out: α2δ-1 binding.

Human μ-opioid receptor, sequence (P35372 whole entry): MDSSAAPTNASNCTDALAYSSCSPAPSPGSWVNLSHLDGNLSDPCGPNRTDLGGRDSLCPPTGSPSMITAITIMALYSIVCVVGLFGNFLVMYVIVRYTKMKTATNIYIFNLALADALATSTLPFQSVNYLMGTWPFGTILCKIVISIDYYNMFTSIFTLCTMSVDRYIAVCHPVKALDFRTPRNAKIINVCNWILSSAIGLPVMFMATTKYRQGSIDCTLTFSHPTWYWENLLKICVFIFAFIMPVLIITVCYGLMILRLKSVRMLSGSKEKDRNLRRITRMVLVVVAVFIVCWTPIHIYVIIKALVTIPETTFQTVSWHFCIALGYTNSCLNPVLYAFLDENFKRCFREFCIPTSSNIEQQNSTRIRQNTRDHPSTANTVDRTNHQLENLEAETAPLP
Human α2δ-1 subunit of Cav2.2 calcium channel, sequence (P54289 25-1103): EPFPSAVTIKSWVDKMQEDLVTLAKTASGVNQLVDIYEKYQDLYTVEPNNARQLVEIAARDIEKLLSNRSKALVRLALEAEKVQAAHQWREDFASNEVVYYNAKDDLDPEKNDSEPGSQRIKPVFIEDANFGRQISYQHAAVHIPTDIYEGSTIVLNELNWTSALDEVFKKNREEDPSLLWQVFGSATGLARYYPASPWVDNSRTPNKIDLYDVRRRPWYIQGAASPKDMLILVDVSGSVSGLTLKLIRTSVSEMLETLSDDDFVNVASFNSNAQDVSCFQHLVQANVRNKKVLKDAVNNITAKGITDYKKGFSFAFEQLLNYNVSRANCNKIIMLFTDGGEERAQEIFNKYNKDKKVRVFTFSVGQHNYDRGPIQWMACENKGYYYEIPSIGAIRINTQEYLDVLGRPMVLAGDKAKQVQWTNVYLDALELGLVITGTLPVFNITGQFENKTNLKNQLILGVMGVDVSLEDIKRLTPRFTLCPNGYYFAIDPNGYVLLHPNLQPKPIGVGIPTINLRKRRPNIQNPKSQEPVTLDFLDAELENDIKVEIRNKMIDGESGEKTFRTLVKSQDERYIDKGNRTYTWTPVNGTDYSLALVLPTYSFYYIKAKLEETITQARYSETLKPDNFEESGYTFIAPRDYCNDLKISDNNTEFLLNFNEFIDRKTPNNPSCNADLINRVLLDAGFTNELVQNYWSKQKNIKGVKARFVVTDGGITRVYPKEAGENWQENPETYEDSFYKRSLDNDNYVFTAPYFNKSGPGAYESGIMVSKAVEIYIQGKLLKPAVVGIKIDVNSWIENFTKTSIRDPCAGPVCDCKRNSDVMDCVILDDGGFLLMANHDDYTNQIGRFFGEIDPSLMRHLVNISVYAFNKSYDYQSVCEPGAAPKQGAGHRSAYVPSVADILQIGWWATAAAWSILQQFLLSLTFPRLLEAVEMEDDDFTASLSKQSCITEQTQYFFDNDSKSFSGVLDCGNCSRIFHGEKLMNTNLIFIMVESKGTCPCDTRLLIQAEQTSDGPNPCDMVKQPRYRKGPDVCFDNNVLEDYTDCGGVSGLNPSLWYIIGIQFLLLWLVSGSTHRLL

For `CCCC(c1nc2cc(NCCNC)ccc2c(=O)n1CC)N1C[C@@H](C)N[C@@H](C)C1` (stereo partly drawn) [Example 147, 2-(1-((3S,5R)-3,5-dimethylpiperazin-1-yl)butyl)-3-ethyl-7-((2-(methylamino)ethyl)amino)quinazolin-4(3H)-one], the values for the Ki (in assay [1]; on Human μ-opioid receptor) were < 500 nM and > 500 nM, respectively.
Taken in the same sequence, the figures for `CCCC(c1nc2ccc(N3CC=C(c4ccccc4O)CC3)cc2c(=O)n1CC)N1C[C@@H](C)N[C@@H](C)C1` (stereo partly drawn) [Example 148, 2-(1-((3S,5R)-3,5-dimethylpiperazin-1-yl)butyl)-3-ethyl-6-(4-(2-hydroxyphenyl)-5,6-dihydropyridin-1(2H)-yl)quinazolin-4(3H)-one] were < 500 nM and > 500 nM.
For `CCCC(c1nc2ccc(N3CCC(N(C)Cc4ccccc4)CC3)cc2c(=O)n1CC)N1C[C@@H](C)N[C@@H](C)C1` (stereo partly drawn) [Example 151, 6-(4-(benzyl(methyl)amino)piperidin-1-yl)-2-(1-((3S,5R)-3,5-dimethylpiperazin-1-yl)butyl)-3-ethylquinazolin-4(3H)-one], in that order: < 500 nM and > 500 nM.
For `CCC[C@@H](c1nc2ccc(N3C[C@H](C)OC4(CCNCC4)C3)cc2c(=O)n1CC)N1C[C@@H](C)N[C@@H](C)C1` [Example 152, 2-((S)-1-((3S,5R)-3,5-Dimethylpiperazin-1-yl)butyl)-3-ethyl-6-((S)-2-methyl-1-oxa-4,9-diazaspiro[5.5]undecan-4-yl)quinazolin-4(3H)-one], the values for the Ki (in assay [1] (read-out: α2δ-1 binding); on Human μ-opioid receptor (read-out: μ-binding)) were 500 to 5000 nM and > 500 nM, respectively.
For `CCC[C@H](c1nc2ccc(N3C[C@H](C)OC4(CCNCC4)C3)cc2c(=O)n1CC)N1C[C@@H](C)N[C@@H](C)C1` [Example 153, 2-((R)-1-((3S,5R)-3,5-dimethylpiperazin-1-yl)butyl)-3-ethyl-6-((S)-2-methyl-1-oxa-4,9-diazaspiro[5.5]undecan-4-yl)quinazolin-4(3H)-one], the Ki was 500 to 5000 nM in assay [1] (read-out: α2δ-1 binding) and > 500 nM at Human μ-opioid receptor (read-out: μ-binding).
Turning to `CCC[C@@H](c1nc2ccc(N3C[C@@H](C)OC4(CCN(CCc5ccccc5)CC4)C3)cc2c(=O)n1CC)N1C[C@@H](C)N[C@@H](C)C1` [Example 154, 2-((S)-1-((3S,5R)-3,5-Dimethylpiperazin-1-yl)butyl)-3-ethyl-6-((R)-2-methyl-9-phenethyl-1-oxa-4,9-diazaspiro[5.5]undecan-4-yl)quinazolin-4(3H)-one], the Ki is < 500 nM in assay [1] and > 500 nM on Human μ-opioid receptor.
Turning to `CCC[C@@H](c1nc2ccc(N3C[C@H](C)OC4(CCN(CCc5ccccc5)CC4)C3)cc2c(=O)n1CC)N1C[C@@H](C)N[C@@H](C)C1` [Example 155, 2-((S)-1-((3S,5R)-3,5-dimethylpiperazin-1-yl)butyl)-3-ethyl-6-((S)-2-methyl-9-phenethyl-1-oxa-4,9-diazaspiro[5.5]undecan-4-yl)quinazolin-4(3H)-one], the Ki in assay [1] is < 500 nM; at Human μ-opioid receptor it was > 500 nM.
For `CCC[C@H](c1nc2ccc(N3C[C@H](C)OC4(CCN(CCc5ccccc5)CC4)C3)cc2c(=O)n1CC)N1C[C@@H](C)N[C@@H](C)C1` [Example 156, 2-((R)-1-((3S,5R)-3,5-dimethylpiperazin-1-yl)butyl)-3-ethyl-6-((S)-2-methyl-9-phenethyl-1-oxa-4,9-diazaspiro[5.5]undecan-4-yl)quinazolin-4(3H)-one], the Ki in assay [1] (setting [2]) was 500 to 5000 nM; at Human μ-opioid receptor, > 500 nM.
For `CCC[C@H](c1nc2ccc(N3C[C@@H](C)OC4(CCN(CCc5ccccc5)CC4)C3)cc2c(=O)n1CC)N1C[C@@H](C)N[C@@H](C)C1` [Example 157, 2-((R)-1-((3S,5R)-3,5-dimethylpiperazin-1-yl)butyl)-3-ethyl-6-((R)-2-methyl-9-phenethyl-1-oxa-4,9-diazaspiro[5.5]undecan-4-yl)quinazolin-4(3H)-one], in that order: 500 to 5000 nM and > 500 nM.
On to `CCC[C@@H](c1nc2ccc(NCC[C@@]3(c4ccccn4)CCOC4(CCCC4)C3)cc2c(=O)n1CC)N1C[C@@H](C)N[C@@H](C)C1` [Example 158, 2-((S)-1-((3S,5R)-3,5-Dimethylpiperazin-1-yl)butyl)-3-ethyl-6-((2-((R)-9-(pyridin-2-yl)-6-oxaspiro[4.5]decan-9-yl)ethyl)amino)quinazolin-4(3H)-one], for which the Ki is < 500 nM in assay [1] and > 500 nM at Human μ-opioid receptor.
Consider `CCC[C@H](c1nc2ccc(NCC[C@]3(c4ccccn4)CCOC4(CCCC4)C3)cc2c(=O)n1CC)N1C[C@@H](C)N[C@@H](C)C1` [Example 159, 2-((R)-1-((3S,5R)-3,5-dimethylpiperazin-1-yl)butyl)-3-ethyl-6-((2-((S)-9-(pyridin-2-yl)-6-oxaspiro[4.5]decan-9-yl)ethyl)amino)quinazolin-4(3H)-one], for which the Ki in assay [1] was 500 to 5000 nM; on Human μ-opioid receptor it was > 500 nM.
Consider `CCC[C@H](c1nc2ccc(NCC[C@@]3(c4ccccn4)CCOC4(CCCC4)C3)cc2c(=O)n1CC)N1C[C@@H](C)N[C@@H](C)C1` [Example 160, 2-((R)-1-((3S,5R)-3,5-dimethylpiperazin-1-yl)butyl)-3-ethyl-6-((2-((R)-9-(pyridin-2-yl)-6-oxaspiro[4.5]decan-9-yl)ethyl)amino)quinazolin-4(3H)-one], for which the results for the Ki (in assay [1]; at Human μ-opioid receptor) were < 500 nM and > 500 nM, respectively.
For `CCC[C@@H](c1nc2ccc(NCC[C@]3(c4ccccn4)CCOC4(CCCC4)C3)cc2c(=O)n1CC)N1C[C@@H](C)N[C@@H](C)C1` [Example 161, 2-((S)-1-((3S,5R)-3,5-dimethylpiperazin-1-yl)butyl)-3-ethyl-6-((2-((S)-9-(pyridin-2-yl)-6-oxaspiro[4.5]decan-9-yl)ethyl)amino)quinazolin-4(3H)-one], in that order: > 5000 nM and > 500 nM.
In the case of `CCCC(c1nc2c(Br)c(N(Cc3cccc(OC)c3)C(=O)OC(C)(C)C)ccc2c(=O)n1CC)N1C[C@@H](C)N[C@@H](C)C1` (stereo partly drawn) [Example 162, tert-Butyl (8-bromo-2-(1-((3S,5R)-3,5-dimethylpiperazin-1-yl)butyl)-3-ethyl-4-oxo-3,4-dihydroquinazolin-7-yl)(3-methoxybenzyl)carbamate], the results for the Ki (in assay [1] (read-out: α2δ-1 binding); at Human μ-opioid receptor (read-out: μ-binding)) were 500 to 5000 nM and > 500 nM, respectively.
For `CCC[C@@H](c1nc2cc(O[C@H](CCNC)c3ccccc3)ccc2c(=O)n1C)N1C[C@@H](C)N[C@@H](C)C1` [Example 164, 2-((S)-1-((3S,5R)-3,5-Dimethylpiperazin-1-yl)butyl)-3-methyl-7-((R)-3-(methylamino)-1-phenylpropoxy)quinazolin-4(3H)-one], the Ki in assay [1] was 500 to 5000 nM; on Human μ-opioid receptor it was > 500 nM.
Taken in the same sequence, the figures for `CCC[C@H](c1nc2cc(O[C@H](CCNC)c3ccccc3)ccc2c(=O)n1C)N1C[C@@H](C)N[C@@H](C)C1` [Example 165, 2-((R)-1-((3S,5R)-3,5-dimethylpiperazin-1-yl)butyl)-3-methyl-7-((R)-3-(methylamino)-1-phenylpropoxy)quinazolin-4(3H)-one] were 500 to 5000 nM and > 500 nM.
For `CCC[C@@H](c1nc2cc(O[C@@H](CCNC)c3ccccc3)ccc2c(=O)n1C)N1C[C@@H](C)N[C@@H](C)C1` [Example 166, 2-((S)-1-((3S,5R)-3,5-dimethylpiperazin-1-yl)butyl)-3-methyl-7-((S)-3-(methylamino)-1-phenylpropoxy)quinazolin-4(3H)-one], in that order: < 500 nM and > 500 nM.
For `CCC[C@H](c1nc2cc(O[C@@H](CCNC)c3ccccc3)ccc2c(=O)n1C)N1C[C@@H](C)N[C@@H](C)C1` [Example 167, 2-((R)-1-((3S,5R)-3,5-dimethylpiperazin-1-yl)butyl)-3-methyl-7-((S)-3-(methylamino)-1-phenylpropoxy)quinazolin-4(3H)-one], in that order: < 500 nM and > 500 nM.
`CCC[C@@H](c1nc2cc(O[C@H](CNC)c3ccccc3)ccc2c(=O)n1C)N1C[C@@H](C)N[C@@H](C)C1` [Example 168, 2-((S)-1-((3S,5R)-3,5-dimethylpiperazin-1-yl)butyl)-3-methyl-7-((S)-2-(methylamino)-1-phenylethoxy)quinazolin-4(3H)-one]: the Ki in assay [1] is 500 to 5000 nM; on Human μ-opioid receptor, > 500 nM.
As for `CCC[C@H](c1nc2cc(O[C@@H](CNC)c3ccccc3)ccc2c(=O)n1C)N1C[C@@H](C)N[C@@H](C)C1` [Example 169, 2-((R)-1-((3S,5R)-3,5-dimethylpiperazin-1-yl)butyl)-3-methyl-7-((R)-2-(methylamino)-1-phenylethoxy)quinazolin-4(3H)-one], the Ki is 500 to 5000 nM in assay [1] and > 500 nM at Human μ-opioid receptor.
As for `CCC[C@H](c1nc2cc(O[C@H](CNC)c3ccccc3)ccc2c(=O)n1C)N1C[C@@H](C)N[C@@H](C)C1` [Example 170, 2-((R)-1-((3S,5R)-3,5-dimethylpiperazin-1-yl)butyl)-3-methyl-7-((S)-2-(methylamino)-1-phenylethoxy)quinazolin-4(3H)-one], the Ki was < 500 nM in assay [1] and > 500 nM on Human μ-opioid receptor.
Take `CCC[C@@H](c1nc2cc(O[C@@H](CNC)c3ccccc3)ccc2c(=O)n1C)N1C[C@@H](C)N[C@@H](C)C1` [Example 171, 2-((S)-1-((3S,5R)-3,5-dimethylpiperazin-1-yl)butyl)-3-methyl-7-((R)-2-(methylamino)-1-phenylethoxy)quinazolin-4(3H)-one]: the Ki in assay [1] is 500 to 5000 nM; on Human μ-opioid receptor, > 500 nM.
`CCCC(c1nc2cc(CO)ccc2c(=O)n1C)N1C[C@@H](C)N[C@@H](C)C1` (stereo partly drawn) [Example 172, 2-(1-((3S,5R)-3,5-Dimethylpiperazin-1-yl)butyl)-7-(hydroxymethyl)-3-methylquinazolin-4(3H)-one]: the Ki was < 500 nM in assay [1] and > 500 nM at Human μ-opioid receptor.
On to `CCCC(c1nc2ccc(CCO)cc2c(=O)n1CC)N1C[C@@H](C)N[C@@H](C)C1` (stereo partly drawn) [Example 173, 2-(1-((3S,5R)-3,5-Dimethylpiperazin-1-yl)butyl)-3-ethyl-6-(2-hydroxyethyl)quinazolin-4(3H)-one], for which the figures for the Ki (in assay [1]; at Human μ-opioid receptor) were < 500 nM and > 500 nM, respectively.
